Experimental data as given in PMC12040169 (PLOS Biology, 2025).

Experiment: in vitro
Settings: human, hela cells, % viability

SMILES	viability at 28.5 h, 10 µM [%]
O=C1CC2(CCN(S(=O)(=O)c3ccc(F)cc3)CC2)CN1 [CBK283353]	93.9
Cc1cc(NC(=O)CC(C)(C)C)nc2c1c(=O)oc1ccccc12 [CBK287444]	101
COc1ccc(/C=N/Nc2nc(OC)nc(N3CCOCC3)n2)cc1 [CBK025751]	91.6
CCOc1cccc(/C=N\NC(=O)C2COc3cc4ccccc4cc3O2)c1O (stereo not shown) [CBK262846]	110
Cn1c(SCc2ccc([N+](=O)[O-])cc2)nnc1C(O)c1ccccc1 (stereo not shown) [CBK269735]	88.6
O=C(Nc1ccnn1Cc1ccccc1)C1CC(c2cccc(F)c2)=NO1 (stereo not shown) [CBK297772]	112
Cn1cc(Nc2nc(-c3ccc4c(c3)CCCN4S(C)(=O)=O)cs2)cn1 [CBK306236]	85.7
Cc1nc(CCCn2cnc3nccnc3c2=O)sc1C [CBK306962]	103
O=C(Nc1ccc2ncsc2c1)C1COc2ccccc2O1 (stereo not shown) [CBK287750]	95.6
O=C1CN(Cc2ccccc2)C(=O)N1CC1CCCCC1 [CBK162367]	93.7
Cc1ccc(CSCCNS(=O)(=O)c2ccc3ccccc3c2)cc1 [CBK268048]	107
COc1cccc2c(O)cnnc12 [CBK026139]	87.2
CN(C)CCN(Cc1ccccc1)C(=O)NCc1ccc(C#N)cc1 [CBK155097]	89.2
CCN(CC(O)COc1ccc2ccccc2c1)S(=O)(=O)O (stereo not shown) [CBK261113K]	87.2
c1cnc(N2CCCC2)c(Sc2nc[nH]n2)n1 [CBK093737]	102
Nc1ncc(-c2ccsc2)nc1NCC1CCOCC1 [CBK063848]	102
CCOC(=O)c1ccccc1NS(=O)(=O)c1ccc(C)c([N+](=O)[O-])c1 [CBK045451]	88.7
CCCS(=O)(=O)Nc1ccc(=O)n2c1[C@@H]1C[C@@H](CN(C(=O)c3ccc(OC)cc3)C1)C2 [CBK288711]	78.3
O=C(NNS(=O)(=O)c1ccc([N+](=O)[O-])cc1)Nc1cccc(C(F)(F)F)c1 [CBK266871]	105
O=S(=O)(NC1CCCCC1Sc1nnc(Nc2ccccc2)s1)c1ccccc1 (stereo not shown) [CBK266378]	96.7
COCCCN(Cc1ccccn1)Cc1cc(F)ccc1F [CBK282950]	108
O=C(CSc1nccn1C1CC1)Nc1ccc(CN2CCOCC2)cc1 [CBK306071]	98.9

SMILES	viability at 28.5 h, 10 µM [%]
Cc1cccc(-c2ccc(CC3(C(N)=O)CCN(C(=O)CCc4ccccc4)CC3)cc2)c1 [CBK285796]	110
CC1(C)CC(=O)c2sc(NC(=O)c3cccc(C(F)(F)F)c3)nc2C1 [CBK019941]	94.2
CCOC(=O)C1CCCN(Cc2c[nH]nc2-c2ccc(OC)cc2F)C1 (stereo not shown) [CBK307304]	91.1
N#CC(c1ccc(O)cc1)N1CCCCC1 (stereo not shown) [CBK028556]	94.4
COc1cccc(C(=O)N2CCC(NC(=O)c3ccccc3C(F)(F)F)CC2)c1 [CBK155024]	99.4
O=C(c1cc2c(s1)CCCC2)N1CCCCC1c1nnc(-c2nccc3ccccc23)o1 (stereo not shown) [CBK285577]	61
Cc1cnc(CNC(=O)N2CCN(c3ccc(F)cc3)CC2)cn1 [CBK156392]	93.7
O=c1n(-c2ccc(OC(F)(F)F)cc2)ccn1S(=O)(=O)c1ccc(Cl)c(Cl)c1 [CBK106656]	94.7
COc1ccc(/C=C(/NC(=O)/C=C/c2ccccc2)C(=O)O)cc1 [CBK264996]	94.8
COc1ccc(CCNC(=O)/C=C/C(=O)O)cc1OC [CBK265373]	103
O=C(Cc1ccc(F)cc1)N1CCCC(c2cc3ncccc3[nH]2)C1 (stereo not shown) [CBK283414]	109
CCOc1cccc(-c2ccc(N(C)CCN(C)C)nc2)c1 [CBK036904]	94.8
CNC(=O)c1ccc(NC(=O)CC(C)(C)CC(=O)O)cc1 [CBK296615]	95.8
O=C(NCCn1nc(-c2cccs2)oc1=O)C1CCCCC1 [CBK282343]	105
O=C(NCC(O)c1ccc(O)cc1)c1cnc(-c2ccc(Cl)cc2)c(-c2cccnc2)c1 (stereo not shown) [CBK036656]	92.5
O=c1n(CC2CCCCC2)c2ccccc2n1S(=O)(=O)c1cccc(Cl)c1 [CBK106521]	91.4
COc1ccccc1CC(C)NC(=O)CC1CCN(c2nc(C)cc(C)n2)CC1 (stereo not shown) [CBK285956]	111
O=C(NCc1ccccc1)c1ccc2nc[nH]c2c1 [CBK143739]	91.9
O=C(Nc1cccc(C(F)(F)F)c1)N1CCC(n2c(=O)[nH]c3ccccc32)CC1 [CBK149845]	84.6
COCCN1CCn2c(nc3cc(NC(=O)c4cccc([N+](=O)[O-])c4)ccc32)C1 [CBK267965]	98.9
CCN1C(=O)c2ccccc2C(=O)[C@@]2(C)CN(C)C[C@@H]12 [CBK283478]	88.3
Cc1ccc(C)c(NC(=O)Cc2nc(CN3CCNC(=O)C3)cs2)c1 [CBK305071]	96.4

SMILES	viability at 28.5 h, 10 µM [%]
COc1cc(-c2cncc(NCc3cccc(Cl)c3)n2)cc(OC)c1OC [CBK065284]	115
COc1ccc(-n2ncc(-c3ccc(Br)cc3F)n2)cc1OC [CBK112915]	96.9
Cc1ccc2c(c1)C(c1c[nH]c3ccccc13)(c1c[nH]c3ccccc13)C(=O)N2C [CBK266401]	103
COc1cc(CNC(=O)N(CCc2ccccc2)Cc2ccccc2)cc(OC)c1OC [CBK155329]	110
CCn1c(SCC(=O)NC2CC2)nc2ccccc21 [CBK305864]	117
COc1ccc(CCN2CCC(Oc3cncc(OCC4COc5ccccc5O4)n3)C2)cc1OC (stereo not shown) [CBK084389]	112
O=C(Cn1cc(-c2ccc(CN3CCCCC3)cc2)nn1)NCc1ccc(C2CCC2)cc1 [CBK167547]	86.6
O=C(CSc1ccccn1)Nc1ccc(CN2CCOCC2)cc1 [CBK306072]	91
O=C(O)c1cccc2c1Sc1ccccc1O2 [CBK017129]	90.8
OCC1CCN(Cc2ccc(OC3CCCC3)cc2)C1 (stereo not shown) [CBK282929]	99.5
c1ccc(CCN2CCC(Oc3nccnc3OCc3cccnc3)CC2)nc1 [CBK083180]	103
Cc1ccc2c(c1)cc(C(=O)N1CCOC(C(=O)N3CCCCCC3)C1)n2C (stereo not shown) [CBK286032]	109
COCCC(=O)NCC1Cc2cc(F)cc(-c3ccc(C(C)=O)s3)c2O1 (stereo not shown) [CBK306742]	109
CCN1C(=O)c2ccccc2C(=O)[C@@]2(C)CN(C(=O)C3CC3)C[C@@H]12 [CBK284567]	81.5
O=C(c1ccccc1Cl)c1cc(Cl)ccc1-n1ccnc1 [CBK005151]	95.2
Nc1nnc(SCc2nc3ccccc3n2Cc2ccccc2)s1 [CBK264649]	92.1
O=C(c1ccsc1NS(=O)(=O)c1ccc2ccccc2c1)N1CCOCC1 [CBK042278]	93.7
C=CCn1c(Cc2csc(NC(=O)c3ccc([N+](=O)[O-])cc3Cl)n2)n[nH]c1=S [CBK295291]	76.1
COc1ccccc1C(NC(=O)C1CCN(CCn2cnc3c2c(=O)n(C)c(=O)n3C)CC1)c1ccccn1 (stereo not shown) [CBK147939]	91.7
COc1ccc(-c2cc(C(F)(F)F)nc(SCC(=O)N(C)c3ccccc3)n2)cc1OC [CBK267628]	112
CC(C)c1nccn1CC(=O)N(C)C(C)c1ccc(F)c(F)c1 (stereo not shown) [CBK306443]	94.5
CC(C)NC(=O)CN(CCO)Cc1cc(Br)ccc1F [CBK304944]	90.7

SMILES	viability at 28.5 h, 10 µM [%]
CN1CC[C@]2(c3ccc4c(c3)nnn4C)CC[C@@H](NC(=O)Nc3cc(F)cc(C(F)(F)F)c3)C[C@H]12 [CBK067800]	99.2
Cn1c(CCNC(=O)c2cccs2)nc2cc([N+](=O)[O-])ccc21 [CBK268511]	83
CC(=O)Nc1ccc(NCc2ncc(C(C)(C)C)o2)c(Cl)c1 [CBK306135]	98.6
CCN1CCC2(CC1)Nc1cc(Cl)c(S(N)(=O)=O)cc1S(=O)(=O)N2 [CBK010418C]	97.7
CCOC(=O)c1sc2nc(C(C)N3CCCCC3)[nH]c(=O)c2c1C (stereo not shown) [CBK306078]	111
CC(=O)c1[nH]c(C)c(C(=O)N(C)Cc2cc(-c3ccncc3)no2)c1C [CBK306681]	97
CN1CCN(c2snnc2CO)CC1 [CBK025626]	99.5
COCCCn1c(=O)[nH]c2ncc(-c3cccc(/C=C/C(=O)O)c3)nc21 [CBK065107]	104
O=C(Nc1ccccc1)NC(N1CCOCC1)C(Cl)(Cl)Cl (stereo not shown) [CBK261293]	103
COc1cccc(C(NC(=O)c2cccc(Cn3ccnc3C)c2)c2ccccc2)c1 (stereo not shown) [CBK285620]	111
COc1ccccc1/C=N/N=C(/Nc1ccc(C)cc1)c1nc2ccccc2s1 [CBK265051]	124
O=C(O)c1ccc(N2C(=O)CC(S/C(=N\c3ccccc3)Nc3ccccc3)C2=O)cc1 (stereo not shown) [CBK262191]	107
CCCn1c(-c2ccccc2OC(F)(F)F)n[nH]c1=O [CBK074238]	110
Cc1nc2ccc(C(=O)O)cc2c2c1CC(CN)O2 (stereo not shown) [CBK286974]	97.7
CC1CCCCN1C(=O)Cn1ncn2c(cc3ccsc32)c1=O (stereo not shown) [CBK284201]	92.1
O=C(O)COc1ccc(NC(=O)CSCc2ccc(Cl)cc2Cl)cc1 [CBK131700]	89.2
Nc1cccc(-c2cc(N3CCCC3CO)n3nccc3n2)c1 (stereo not shown) [CBK037049]	88.6
C=CCOc1ccc(Cl)cc1CNc1cccc(C(=O)O)c1 [CBK078460]	96.6
CC1CCN(S(=O)(=O)c2cccs2)CC1 [CBK102093]	118
COc1ccc(N2C(=S)N(Cc3cccs3)[C@H]3[C@@H](O)[C@H](O)C[C@@H](C(N)=O)[C@H]32)cc1 [CBK288929]	93
Cc1ccc(-n2c3c(cc(C(=O)NCCCN4CCOCC4)c2=O)C(=O)CCC3)cc1 [CBK266094]	115
N#CCCCN1CCC(Oc2nccnc2OCc2cccc(OCc3ccccc3)c2)CC1 [CBK161572]	97.5
